Experimental findings from patent US20080095822A1, “Active Substance Delivery System Comprising A Hydrogel Atrix And Microcarriers” (UNIVERSITE DE LIEGE, priority 2004, published 2008) are described below.

This data set in a line: release of LNG from PHEMA hydrogel matrix into purified water (HPLC-UV). The class given is physicochemical. The conditions noted are these: LNG directly in matrix, after 10 days, purified water 37° C.

For the compound `C#C[C@]1(O)CC[C@H]2[C@@H]3CCC4=CC(=O)CC[C@@H]4[C@H]3CC[C@@]21CC` [LNG, levonorgestrel], the “release rate after stabilisation” value is “around 10 μg/day”.
